Results reported in patent US20250064774A1, “FORMULATIONS AND METHODS OF MAKING AND USING THE SAME” (AraVai Global LLC, priority 2021, published 2025).

Tested on: skin of the intrascapular regions of the back
Experiment: Repeat insult patch test under occlusive conditions (induction and challenge)
Details: positive control
Text: The raw material ingredients to be tested under occlusive conditions were placed on an 8-millimeter aluminum Finn Chamber® (Epitest Ltd. Oy, Tuusula, Finland) supported on Scanpor® Tape (Norgesplaster A/S, Kristiansand, Norway) or an 8-millimeter filter paper coated aluminum Finn Chamber® AQUA supported on a thin flexible transparent polyurethane rectangular film coated on one side with a medical grade acrylic adhesive, consistent with adhesive used in state-of-the-art hypoallergenic surgical tape or a 7 mm IQ-ULTRA® closed cell system which is made of additive-free polyethylene plastic foam with a filter paper incorporated. It is supplied in units of 10 chambers on a hypoallergenic non-woven adhesive tape; the width of the tape is 52 mm and the length is 118 mm or other equivalents. […]
Approximately 0.02-0.05 mL for liquid materials and/or 0.02-0.05 g for solid materials of the test material was used for the study. […] Prior to each reapplication, the test sites evaluated by trained laboratory personnel. […] Test sites were evaluated by trained laboratory personnel 48 and 96 hours after application. In the event of an adverse reaction, the area of erythema and edema were measured. […] Subjects were instructed to report any delayed reactions that might occur after the final reading. […]

## CCCCCCCCCCCCOS(=O)(=O)[O-].[Na+] [2.0% Sodium Lauryl Sulfate Solution, Sodium Lauryl Sulfate]
  subjects with a Grade 1 reaction: ten
  subjects with a Grade 4 reaction: one
